In patent publication US11000033B2, “Ketone or oxime compound, and herbicide” (NISSAN CHEMICAL CORPORATION, priority 2014, dated 2021):

How the values were obtained:
Type in all cases: in vivo
Digitaria ciliaris = assay: Test Example 5: herbicidal effect by foliage application, plastic box (symbol F); details: 320 g/ha, 3 weeks after application
Outline: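 Visual herbicidal score, taken three weeks post-application, of seedlings sprayed on the foliage with water-diluted emulsion at a predetermined amount; plants were 14 days old, greenhouse-raised at 25° C. to 30° C.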

transplanted rice plant = assay: Test Example 1: effect on crop, application before weed generation in submerged conditions (symbol a); details: application herbicide amount 320 g/ha
Outline: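 Alluvial soil pots flooded to 4 cm water, sown with Echinochloa oryzacola, Scirpus juncoides and Monochoria vaginalis, then transplanted with 2.5 leaf stage rice seedlings; pre-emergence application. Greenhouse 25° C. to 30° C.; scored 0–5 by herbicidal ratio 3 weeks after application.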

[1] = system: Echinochloa oryzacola Vasing.; assay: Test Example 1: herbicidal activity, application before weed generation in submerged conditions (symbol A); details: application herbicide amount 320 g/ha
Outline: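 Flooded alluvial soil (4 cm water) was mixed-sown with the three weed species, and 2.5-leaf rice seedlings were transplanted. On sowing day, a water-diluted emulsion at a predetermined rate was applied to the water surface. After 3 weeks in a 25–30 °C greenhouse, effect was scored 0–5.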

[2] = system: Echinochloa oryzacola Vasing.; assay: Test Example 2: herbicidal activity, application during weed generation in submerged conditions (symbol A); details: Table 23; application herbicide amount 320 g/ha; grade 0-5 by criteria of Test Example 1
Outline: (§1)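 Visual herbicidal ratings, taken three weeks after dosing, reflect post-emergence water-surface application to seedlings at one to two leaves. Conditions: co-sown weeds in alluvial soil flooded to 4 cm, greenhouse held at 25° C. to 30° C.; compound given as water-diluted emulsion at a fixed herbicide amount.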

Avena fatua = assay: Test Example 4: herbicidal effect by soil treatment (symbol I); details: application herbicide amount 320 g/ha
Outline: (§2)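 Seeds were sown in sterilized diluvial soil, covered with about 1.5 cm of soil, and the soil surface was sprayed with a water-diluted emulsion of the compound at a predetermined rate. Plants grew in a greenhouse at 25° C. to 30° C.; effects were scored visually 3 weeks after application.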

Monochoria vaginalis = assay: Test Example 2: herbicidal activity, application during weed generation in submerged conditions (symbol C); details: Table 23; application herbicide amount 320 g/ha; grade 0-5 by criteria of Test Example 1
Outline: as §1

[3] = system: directly sowed rice plant; assay: Test Example 3: effect on crop by foliage application, Wagner pot (symbol b); details: application herbicide amount 320 g/ha
Outline: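 Wagner pot (1/10000 are), alluvial soil, submerged 0.1–0.5 cm; sown E. crus-galli var. crus-galli, L. chinensis, C. difformis, rice; greenhouse 25–30 °C.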

wheat = assay: Test Example 5: effect on crop by foliage application, plastic box (symbol e); details: 320 g/ha, 3 weeks after application
Outline: (§3)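 Soil: sterilized diluvial. Container: plastic box, 21 × 13 cm, 7 cm deep. Sowing: spot-like, ~1.5 cm cover. Growth: greenhouse, 25° C. to 30° C.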

Setaria viridis = assay: Test Example 4: herbicidal effect by soil treatment (symbol G); details: application herbicide amount 320 g/ha
Outline: as §2

rapeseed = assay: Test Example 4: effect on crop by soil treatment (symbol g); details: application herbicide amount 320 g/ha
Outline: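 Crop seeds, among them rice, wheat, beet and rapeseed, were sown in sterilized diluvial soil and covered with about 1.5 cm of soil. Boxes were kept in a greenhouse at 25° C. to 30° C. for plant growth.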

corn = assay: Test Example 5: effect on crop by foliage application, plastic box (symbol c); details: 320 g/ha, 3 weeks after application
Outline: as §3

Compound	F: Digitaria ciliaris, herbicidal effect grade (Digitaria ciliaris)	Effect grade on crop, a: transplanted rice plant (transplanted rice plant)	Herbicidal effect grade, A: Echinochloa oryzacola Vasing. [1]	Herbicidal effect grade, A: Echinochloa oryzacola Vasing. [2]	I: Avena fatua, herbicidal effect grade (Avena fatua)	Herbicidal effect grade, C: Monochoria vaginalis (Monochoria vaginalis)	effect on crop b (directly sowed rice plant), grade 0-5 [3]	e: wheat, effect on crop grade (wheat)	G: Setaria viridis, herbicidal effect grade (Setaria viridis)	g: rapeseed, effect on crop grade (rapeseed)	c: corn, effect on crop grade (corn)
CCCC(=O)C(C(=O)OC)C1CC(O)=C(c2c(C)cc(C)cc2C)C1=O (centres unmarked) [2-020]	3 (Herbicidal ratio of 40% or higher and lower than 70%)	3 (Herbicidal ratio of 40% or higher and lower than 70%)	2 (Herbicidal ratio of 20% or higher and lower than 40%)	1 (Herbicidal ratio of 5% or higher and lower than 20%)	0 (Herbicidal ratio of 5% or lower (almost no effect))	0 (Herbicidal ratio of 5% or lower (almost no effect))	2 (Herbicidal ratio of 20% or higher and lower than 40%)	0 (Herbicidal ratio of 5% or lower (almost no effect))	5 (Herbicidal ratio of 90% or more (almost completely withered))	0 (Herbicidal ratio of 5% or lower (almost no effect))	1 (Herbicidal ratio of 5% or higher and lower than 20%)
CCCC(=O)CC1CC(O)=C(c2c(C)cc(C)cc2C)C1=O (centres unmarked) [2-021]	4 (Herbicidal ratio of 70% or higher and lower than 90%)	5 (Herbicidal ratio of 90% or more (almost completely withered))	4 (Herbicidal ratio of 70% or higher and lower than 90%)	5 (Herbicidal ratio of 90% or more (almost completely withered))	0 (Herbicidal ratio of 5% or lower (almost no effect))	1 (Herbicidal ratio of 5% or higher and lower than 20%)	5 (Herbicidal ratio of 90% or more (almost completely withered))	0 (Herbicidal ratio of 5% or lower (almost no effect))	5 (Herbicidal ratio of 90% or more (almost completely withered))	1 (Herbicidal ratio of 5% or higher and lower than 20%)	3 (Herbicidal ratio of 40% or higher and lower than 70%)
Cc1cc(C)c(C2=C(O)CC(CC(=O)C(C)(C)C)C2=O)c(C)c1 (centres unmarked) [2-022]	0 (Herbicidal ratio of 5% or lower (almost no effect))	3 (Herbicidal ratio of 40% or higher and lower than 70%)	1 (Herbicidal ratio of 5% or higher and lower than 20%)	1 (Herbicidal ratio of 5% or higher and lower than 20%)	0 (Herbicidal ratio of 5% or lower (almost no effect))	0 (Herbicidal ratio of 5% or lower (almost no effect))	5 (Herbicidal ratio of 90% or more (almost completely withered))	0 (Herbicidal ratio of 5% or lower (almost no effect))	4 (Herbicidal ratio of 70% or higher and lower than 90%)	0 (Herbicidal ratio of 5% or lower (almost no effect))	3 (Herbicidal ratio of 40% or higher and lower than 70%)
CCC(C)C(=O)CC1CC(O)=C(c2c(C)cc(C)cc2C)C1=O (centres unmarked) [2-024]	4 (Herbicidal ratio of 70% or higher and lower than 90%)	4 (Herbicidal ratio of 70% or higher and lower than 90%)	2 (Herbicidal ratio of 20% or higher and lower than 40%)	1 (Herbicidal ratio of 5% or higher and lower than 20%)	0 (Herbicidal ratio of 5% or lower (almost no effect))	0 (Herbicidal ratio of 5% or lower (almost no effect))	5 (Herbicidal ratio of 90% or more (almost completely withered))	0 (Herbicidal ratio of 5% or lower (almost no effect))	5 (Herbicidal ratio of 90% or more (almost completely withered))	0 (Herbicidal ratio of 5% or lower (almost no effect))	3 (Herbicidal ratio of 40% or higher and lower than 70%)
Cc1cc(C)c(C2=C(O)CC(CC(=O)CC3CC3)C2=O)c(C)c1 (centres unmarked) [2-026]	4 (Herbicidal ratio of 70% or higher and lower than 90%)	4 (Herbicidal ratio of 70% or higher and lower than 90%)	3 (Herbicidal ratio of 40% or higher and lower than 70%)	4 (Herbicidal ratio of 70% or higher and lower than 90%)	0 (Herbicidal ratio of 5% or lower (almost no effect))	0 (Herbicidal ratio of 5% or lower (almost no effect))	5 (Herbicidal ratio of 90% or more (almost completely withered))	0 (Herbicidal ratio of 5% or lower (almost no effect))	5 (Herbicidal ratio of 90% or more (almost completely withered))	4 (Herbicidal ratio of 70% or higher and lower than 90%)	2 (Herbicidal ratio of 20% or higher and lower than 40%)
Cc1cc(C)c(C2=C(O)CC(CC(=O)C3CCCC3)C2=O)c(C)c1 (centres unmarked) [2-028]	2 (Herbicidal ratio of 20% or higher and lower than 40%)	3 (Herbicidal ratio of 40% or higher and lower than 70%)	3 (Herbicidal ratio of 40% or higher and lower than 70%)	3 (Herbicidal ratio of 40% or higher and lower than 70%)	0 (Herbicidal ratio of 5% or lower (almost no effect))	0 (Herbicidal ratio of 5% or lower (almost no effect))	5 (Herbicidal ratio of 90% or more (almost completely withered))	0 (Herbicidal ratio of 5% or lower (almost no effect))	5 (Herbicidal ratio of 90% or more (almost completely withered))	0 (Herbicidal ratio of 5% or lower (almost no effect))	4 (Herbicidal ratio of 70% or higher and lower than 90%)
Cc1cc(C)c(C2=C(O)CC(CC(=O)C3CCCCC3)C2=O)c(C)c1 (centres unmarked) [2-030]	4 (Herbicidal ratio of 70% or higher and lower than 90%)	3 (Herbicidal ratio of 40% or higher and lower than 70%)	4 (Herbicidal ratio of 70% or higher and lower than 90%)	3 (Herbicidal ratio of 40% or higher and lower than 70%)	0 (Herbicidal ratio of 5% or lower (almost no effect))	0 (Herbicidal ratio of 5% or lower (almost no effect))	5 (Herbicidal ratio of 90% or more (almost completely withered))	0 (Herbicidal ratio of 5% or lower (almost no effect))	5 (Herbicidal ratio of 90% or more (almost completely withered))	0 (Herbicidal ratio of 5% or lower (almost no effect))	2 (Herbicidal ratio of 20% or higher and lower than 40%)
